Measurements from paper PMC7343282, “Tissue Distribution of Several Series of Cationic Surfactants in Rainbow Trout (Oncorhynchus mykiss) Following Exposure via Water” (Environmental Science & Technology, 2020).
Values joined by “and” are separate entries in the source; they are usually repeats but may differ in a detail not shown here. Equal entries are not always repeated.

Legend:
[1] = Tissue-blood distribution coefficients and volume of distribution; details: whole blood, pH 7.5, Estimated volume of distribution Vd, residues in muscle, liver and blood only
Experimental: (§1) Blood is the transport medium for contaminants in fish, and the tissue distribution is governed by tissue–blood distribution coefficients. […] Muscle–blood and liver–blood distribution coefficients (DMus–B and DL–B) were calculated as the quotients of the concentrations in the respective tissues and blood. This approach implies that there was an internal test chemical steady state in the fish.
(§2) The experimental data also allow estimation of the volume of distribution (Vd), an important parameter for extrapolating in vitro measures of e.g. metabolism to in vivo. In the context of quantitative in vitro–in vivo extrapolation for fish, Vd is defined as the quotient of the concentration in fish and the concentration in blood and describes the equivalent volume of blood that would contain the same amount of the chemical as 1 kg of fish.[40]Vd was estimated using the residues that had been clearly taken up systemically (i.e., those in muscle, liver and blood).

Danio rerio = details: ref REACH dossiers (European Chemicals Agency); cited from earlier work
[2] = system: rainbow trout (Oncorhynchus mykiss); assay: Tissue-blood distribution coefficients and volume of distribution; details: residues in muscle, liver and blood only
Experimental: as §1, §2

Pimephales promelas = system: Pimephales promelas; set-up: method as in REACH dossiers (European Chemicals Agency); details: ref REACH dossiers (European Chemicals Agency); cited from earlier work
carp (Cyprinus carpio) = system: carp (Cyprinus carpio); set-up: method as in ECHA Registration dossier for octadecylamine; details: after acidic methanol wash to remove the mucous, validity uncertain, ref ECHA Registration dossier for octadecylamine; cited from earlier work

Structure (SMILES)	Vd at 7 d ([1]; Mean)	Vd at 7 d ([1]; exposed fish #1)	Vd at 7 d ([1]; exposed fish #2)	Vd at 7 d ([1]; exposed fish #3)	Vd at 7 d ([1]; exposed fish #4)	Vd at 7 d ([1]; exposed fish #5)	Vd at 7 d ([1]; exposed fish #6)	96h-LC50 (Danio rerio)	Estimated volume of distribution Vd ([2]; Mean)	Estimated volume of distribution Vd ([2]; exposed fish #1)	Estimated volume of distribution Vd ([2]; exposed fish #2)	Estimated volume of distribution Vd ([2]; exposed fish #3)	Estimated volume of distribution Vd ([2]; exposed fish #4)	Estimated volume of distribution Vd ([2]; exposed fish #5)	Estimated volume of distribution Vd ([2]; exposed fish #6)	Vd at 7 d ([1]; rainbow trout (Oncorhynchus mykiss), other: exposure via water, Mean)	96h-LC50 (Pimephales promelas)	BCF (carp (Cyprinus carpio))
CCCCCCCCCCCCN [P12, Dodecylamine]	1.29 L/kg	1.13 L/kg	1.31 L/kg	1.07 L/kg	1.87 L/kg	1.56 L/kg	0.79 L/kg	0.54 µg/mL and 0.42 µg/mL	–	–	–	–	–	–	–	–	–	–
CCCCCCCCCN(C)C [T9, N,N-dimethylnonylamine]	–	–	–	–	–	–	–	–	0.49 L/kg	0.53 L/kg	0.45 L/kg	0.41 L/kg	0.51 L/kg	0.52 L/kg	0.52 L/kg	–	–	–
CCCCCCCCCCCCCN(C)C [T13, N,N-dimethyltridecylamine]	–	–	–	–	–	–	–	–	0.71 L/kg	0.58 L/kg	0.64 L/kg	0.59 L/kg	1.18 L/kg	0.80 L/kg	0.47 L/kg	–	–	–
CCCCCCCCCCCCCN [P13, tridecylamine]	–	1.59 L/kg	1.44 L/kg	1.28 L/kg	1.33 L/kg	1.54 L/kg	1.77 L/kg	–	–	–	–	–	–	–	–	1.49 L/kg	0.065 µg/mL	–
CCCCCCCCCCCCCCCCN [P16, hexadecylamine]	1.13 L/kg	0.99 L/kg	1.2 L/kg	1.1 L/kg	1.63 L/kg	1.15 L/kg	0.73 L/kg	–	–	–	–	–	–	–	–	–	–	300 L/kg
CCCCCCCCCN [P9, Nonylamine]	0.91 L/kg	0.59 L/kg	1.06 L/kg	0.8 L/kg	1.6 L/kg	0.83 L/kg	0.56 L/kg	–	–	–	–	–	–	–	–	–	–	–
